Reference: patent US20250145633A1, “SUBSTITUTED FURANOPYRIMIDINE COMPOUNDS AS PDE1 INHIBITORS” (Dart NeuroScience, LLC, priority 2017, published 2025)

Biological target: human PDE1B enzyme (Homo sapiens (Human), UniProt Q01064)
Experiment: IMAP TR-FRET PDE1B enzymatic assay
Assay type: biochemical
Settings: negative log of half-maximal molar inhibitory concentration; 200 nM FAM-cAMP; values given as bins
Summary of the method: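 Full-length GST-tagged human PDE1B (250 pg/well) in IMAP BSA buffer with 10 U/ml calmodulin and 2.5 mM CaCl2; compound pre-incubated 5 min at room temperature, then 200 nM (final) FAM-cAMP for 30 min. IMAP binding reagent/Tb added, 1 h; TR-FRET 520/490 ratio read. IC50 from sigmoidal dose-response fit.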

Row | Structure (SMILES) | PDE1b (pIC50)
1 | Cc1oc2ncnc(NC3(C)CC3)c2c1C(=O)N1CCC(c2ncc(Cl)cn2)C1 (stereo not drawn) [Example 335, 5-[3-(5-Chloropyrimidin-2-yl)pyrrolidine-1-carbonyl]-6-methyl-N-(1-methylcyclopropyl)furo[2,3-d]pyrimidin-4-amine] | >8
2 | Cc1oc2ncnc(NC3(C)CC3)c2c1C(=O)N1CCC(F)(c2ccc(F)cc2)C1 (stereo not drawn) [Example 133, 5-[3-Fluoro-3-(4-fluorophenyl)pyrrolidine-1-carbonyl]-6-methyl-N-(1-methylcyclopropyl)furo[2,3-d]pyrimidin-4-amine] | >8
3 | Cc1oc2ncnc(NC3(C)CC3)c2c1C(=O)N1CCC(c2nc(Cl)ncc2F)CC1 [Example 351, 5-[4-(2-Chloro-5-fluoropyrimidin-4-yl)piperidine-1-carbonyl]-6-methyl-N-(1-methylcyclopropyl)furo[2,3-d]pyrimidin-4-amine] | >8
4 | COc1ccccc1OCCNC(=O)c1c(C)oc2ncnc(NC3(C)CC3)c12 [Example 557, N-[2-(2-Methoxyphenoxy)ethyl]-6-methyl-4-[(1-methylcyclopropyl)amino]furo[2,3-d]pyrimidine-5-carboxamide] | >8
5 | Cc1oc2ncnc(NC3(C)CC3)c2c1C(=O)NCc1ccc(Cl)nc1 [Example 312, N-[(6-Chloropyridin-3-yl)methyl]-6-methyl-4-[(1-methylcyclopropyl)amino]furo[2,3-d]pyrimidine-5-carboxamide] | >8
6 | COc1ncc(CNC(=O)c2c(C)oc3ncnc(NC4(C)CC4)c23)cn1 [Example 698, N-[(2-Methoxypyrimidin-5-yl)methyl]-6-methyl-4-[(1-methylcyclopropyl)amino]furo[2,3-d]pyrimidine-5-carboxamide] | >8
7 | Cc1oc2ncnc(NC3(C)CC3)c2c1C(=O)N1CCC(O)(c2ccc(F)cc2)CC1 [Example 63, 4-(4-Fluorophenyl)-1-{6-methyl-4-[(1-methylcyclopropyl)amino]furo[2,3-d]pyrimidine-5-carbonyl}piperidin-4-ol] | >8
8 | Cc1oc2ncnc(NC3(C)CC3)c2c1C(=O)N1CC=C(c2cnc(C#N)c(F)c2)CC1 [Example 12, 3-Fluoro-5-(1-{6-methyl-4-[(1-methylcyclopropyl)amino]furo[2,3-d]pyrimidine-5-carbonyl}-1,2,3,6-tetrahydropyridin-4-yl)pyridine-2-carbonitrile] | >8

Same assay, conditions: negative log of half-maximal molar inhibitory concentration; 200 nM FAM-cAMP; values given as bins; read-out: PDE1b (pIC50) (converted)

Row | Structure (SMILES) | IC50 [nM]
9 | COc1ncnc2c1CCN(C(=O)c1c(C)oc3ncnc(NC4(C)CC4)c13)CC2 [Example 629, 5-{4-Methoxy-5H,6H,7H,8H,9H-pyrimido[4,5-d]azepine-7-carbonyl}-6-methyl-N-(1-methylcyclopropyl)furo[2,3-d]pyrimidin-4-amine] | 100 to 1000
10 | Cc1oc2ncnc(NC3(C)CC3)c2c1C(=O)NC(C)C(C)C (stereo not drawn) [Example 170, 6-Methyl-N-(3-methylbutan-2-yl)-4-[(1-methylcyclopropyl)amino]furo[2,3-d]pyrimidine-5-carboxamide] | 10 to 100
11 | Cc1oc2ncnc(NC3(C)CC3)c2c1C(=O)N1CCc2c(ncnc2C(C)C)C1 [Example 628, 6-Methyl-N-(1-methylcyclopropyl)-5-[4-(propan-2-yl)-5H,6H,7H,8H-pyrido[3,4-d]pyrimidine-7-carbonyl]furo[2,3-d]pyrimidin-4-amine] | 10 to 100
12 | Cc1oc2ncnc(NC3(C)CC3)c2c1C(=O)NCc1cn2ccnc2cn1 [Example 719, N-{Imidazo[1,2-a]pyrazin-6-ylmethyl}-6-methyl-4-[(1-methylcyclopropyl)amino]furo[2,3-d]pyrimidine-5-carboxamide] | 10 to 100
13 | Cc1cncc(NC(=O)c2c(C)oc3ncnc(NC4(C)CC4)c23)n1 [Example 437, 6-Methyl-4-[(1-methylcyclopropyl)amino]-N-(6-methylpyrazin-2-yl)furo[2,3-d]pyrimidine-5-carboxamide] | 100 to 1000
14 | Cc1oc2ncnc(NC3(C)CC3)c2c1C(=O)N1CCc2c(ncnc2C2CC2)C1 [Example 805, 5-{4-Cyclopropyl-5H,6H,7H,8H-pyrido[3,4-d]pyrimidine-7-carbonyl}-6-methyl-N-(1-methylcyclopropyl)furo[2,3-d]pyrimidin-4-amine] | 10 to 100
15 | COc1cccc(F)c1CNC(=O)c1c(C)oc2ncnc(NC3(C)CC3)c12 [Example 547, N-[(2-Fluoro-6-methoxyphenyl)methyl]-6-methyl-4-[(1-methylcyclopropyl)amino]furo[2,3-d]pyrimidine-5-carboxamide] | 10 to 100
16 | Cc1oc2ncnc(NC3(C)CC3)c2c1C(=O)NCc1nc2ccc(F)cc2n1C [Example 725, N-[(6-Fluoro-1-methyl-1H-1,3-benzodiazol-2-yl)methyl]-6-methyl-4-[(1-methylcyclopropyl)amino]furo[2,3-d]pyrimidine-5-carboxamide] | 10 to 100
17 | Cc1oc2ncnc(NC3(C)CC3)c2c1C(=O)NCc1ccc(F)nc1 [Example 293, N-[(6-Fluoropyridin-3-yl)methyl]-6-methyl-4-[(1-methylcyclopropyl)amino]furo[2,3-d]pyrimidine-5-carboxamide] | 10 to 100
18 | Cc1ncc2c(n1)CCN(C(=O)c1c(C)oc3ncnc(NC4(C)CC4)c13)C2 [Example 39, 6-Methyl-5-f{2-methyl-5H,6H,7H,8H-pyrido[4,3-d]pyrimidine-6-carbonyl}-N-(1-methylcyclopropyl)furo[2,3-d]pyrimidin-4-amine] | 10 to 100
19 | COC(=O)c1cnc(C2CN(C(=O)c3c(C)oc4ncnc(NC5(C)CC5)c34)C2)nc1 [Example 462, Methyl 2-(1-{6-methyl-4-[(1-methylcyclopropyl)amino]furo[2,3-d]pyrimidine-5-carbonyl}azetidin-3-yl)pyrimidine-5-carboxylate] | 100 to 1000
20 | Cc1nc(CNC(=O)c2c(C)oc3ncnc(NC4(C)CC4)c23)no1 [Example 461, 6-Methyl-N-[(5-methyl-1,2,4-oxadiazol-3-yl)methyl]-4-[(1-methylcyclopropyl)amino]furo[2,3-d]pyrimidine-5-carboxamide] | 10 to 100
21 | Cc1ncc(CNC(=O)c2c(C)oc3ncnc(NC4(C)CC4)c23)cn1 [Example 679, 6-Methyl-4-[(1-methylcyclopropyl)amino]-N-[(2-methylpyrimidin-5-yl)methyl]furo[2,3-d]pyrimidine-5-carboxamide] | 10 to 100
22 | Cc1oc2ncnc(NC3(C)CC3)c2c1C(=O)N1CCc2c(ncnc2N2CC[C@H](F)C2)C1 [Example 786, 5-{4-[(3S)-3-Fluoropyrrolidin-1-yl]-5H,6H,7H,8H-pyrido[3,4-d]pyrimidine-7-carbonyl}-6-methyl-N-(1-methylcyclopropyl)furo[2,3-d]pyrimidin-4-amine] | 10 to 100
23 | Cc1oc2ncnc(NC3(C)CC3)c2c1C(=O)NCc1ccnc(N2CCOCC2)c1 [Example 675, 6-Methyl-4-[(1-methylcyclopropyl)amino]-N-{[2-(morpholin-4-yl)pyridin-4-yl]methyl}furo[2,3-d]pyrimidine-5-carboxamide] | 10 to 100
24 | Cc1oc2ncnc(NC3(C)CC3)c2c1C(=O)Nc1ccc2c(cnn2C)c1 [Example 262, 6-Methyl-N-(1-methyl-1H-indazol-5-yl)-4-[(1-methylcyclopropyl)amino]furo[2,3-d]pyrimidine-5-carboxamide] | 10 to 100
25 | COc1ccc(C(C)NC(=O)c2c(C)oc3ncnc(NC4(C)CC4)c23)cc1 (stereo in doubt) [Example 480, N-[(1S)-1-(4-Methoxyphenyl)ethyl]-6-methyl-4-[(1-methylcyclopropyl)amino]furo[2,3-d]pyrimidine-5-carboxamide] | 10 to 100
26 | Cc1oc2ncnc(NC3(C)CC3)c2c1C(=O)NCc1nccc(C(F)F)n1 [Example 707, N-{[4-(Difluoromethyl)pyrimidin-2-yl]methyl}-6-methyl-4-[(1-methylcyclopropyl)amino]furo[2,3-d]pyrimidine-5-carboxamide] | 10 to 100
27 | COc1cc(CN(C)C(=O)c2c(C)oc3ncnc(NC4(C)CC4)c23)ncn1 [Example 685, N-[(6-Methoxypyrimidin-4-yl)methyl]-N,6-dimethyl-4-[(1-methylcyclopropyl)amino]furo[2,3-d]pyrimidine-5-carboxamide] | 100 to 1000
28 | Cc1oc2ncnc(NC3(C)CC3)c2c1C(=O)N1CCOC(c2cccnc2)C1 (stereo not drawn) [Example 120, 6-Methyl-N-(1-methylcyclopropyl)-5-[2-(pyridin-3-yl)morpholine-4-carbonyl]furo[2,3-d]pyrimidin-4-amine] | 100 to 1000
29 | Cc1oc2ncnc(NC3(C)CC3)c2c1C(=O)N1CCCCC(c2ccc(F)cc2)C1 (stereo not drawn) [Example 295, 5-[3-(4-Fluorophenyl)azepane-1-carbonyl]-6-methyl-N-(1-methylcyclopropyl)furo[2,3-d]pyrimidin-4-amine] | 10 to 100
30 | COc1cnc(N2CCN(C(=O)c3c(C)oc4ncnc(NC5(C)CC5)c34)CC2)nc1 [Example 327, 5-[4-(5-Methoxypyrimidin-2-yl)piperazine-1-carbonyl]-6-methyl-N-(1-methylcyclopropyl)furo[2,3-d]pyrimidin-4-amine] | 10 to 100
31 | Cc1oc2ncnc(NC3(C)CC3)c2c1C(=O)N1CCC(c2ncccc2F)C1 (stereo not drawn) [Example 529, 5-[3-(3-Fluoropyridin-2-yl)pyrrolidine-1-carbonyl]-6-methyl-N-(1-methylcyclopropyl)furo[2,3-d]pyrimidin-4-amine] | 10 to 100
32 | Cc1oc2ncnc(NC3(C)CC3)c2c1C(=O)NCc1cc(Br)no1 [Example 318, N-[(3-Bromo-1,2-oxazol-5-yl)methyl]-6-methyl-4-[(1-methylcyclopropyl)amino]furo[2,3-d]pyrimidine-5-carboxamide] | 10 to 100
33 | Cc1oc2ncnc(NC3(C)CC3)c2c1C(=O)N1CCn2c(C(F)(F)F)nc(C3CCOCC3)c2C1 [Example 638, 6-Methyl-N-(1-methylcyclopropyl)-5-[1-(oxan-4-yl)-3-(trifluoromethyl)-5H,6H,7H,8H-imidazo[1,5-a]pyrazine-7-carbonyl]furo[2,3-d]pyrimidin-4-amine] | 100 to 1000
